Where two headings read alike, the source gives them in different places.
Tests used:
microglial cells = details: 1-16 μmol/l; cited from earlier work
CD83 = details: cited from earlier work
[1] = system: ischemia-reperfusion-induced kidney injury; details: mice, 10 mg/kg after induced kidney injury; cited from earlier work
IL-6 secretion = details: cellular models, majority of cases; cited from earlier work
[2] = systemic exposure after i.p. and oral application of CBD in mice (Deiana et al.); type: in vivo; details: 20 mg/kg, assuming dose-proportional plasma concentrations
Procedure: A comparative investigation for systemic exposure after i.p. and oral application of CBD in mice and rats has shown that 120 mg/kg as a single dose leads to a maximum plasma concentration of 14,000 ng/ml in mice (S. Deiana et al. (2012). Plasma and brain pharmacokinetic profile of cannabidiol (CBD), cannabidivarine (CBDV), Delta(9)-tetrahydrocannabivarin (THCV) and cannabigerol (CBG) in rats and mice following oral and intraperitoneal administration and CBD action on obsessive-compulsive behaviour. Psychopharmacology (Berl) 219(3): 859-73).

NK, NKT, T and B cells = details: healthy rats, cited from earlier work
IL-6 = details: animal models including diabetes, asthma, pancreatitis and hepatitis; cited from earlier work
[3] = n-octanol/water; cited from earlier work
human neutrophils = details: cited from earlier work
[4] = system: activated memory T cell line; details: 1-5 μmol/l, cited from earlier work
[5] = system: LPS-induced acute lung injury; details: cited from earlier work
human mononuclear cells = details: nanomolar or micromolar concentrations; cited from earlier work
[6] = mice, 120 mg/kg single dose; cited from earlier work
[7] = system: chemically induced acute hepatitis; details: mice, 25 mg/kg; cited from earlier work
[8] = prophylactic, i.p. 0.3-80 mg/kg 60 min before LPS
[9] = therapeutic, 6 h after LPS, 20 mg/kg

SMILES: C=C(C)[C@@H]1CCC(C)=C[C@H]1c1c(O)cc(CCCCC)cc1O [CBD, 2-[(1R,6R)-3-methyl-6-(1-methylethenyl)-2-cyclohexen-1-yl]-5-pentyl-1,3-benzenediol]
- apoptosis in microglial cells (microglial cells): induces apoptosis
- CD83 dendritic cell activation marker (CD83; dendritic cells from healthy individuals): not
- CD83 dendritic cell activation marker (CD83; dendritic cells from individuals with HIV infection): suppresses
- decreased Treg17 levels and increased Th17 levels [1]: reversed these effects
- effect on kidney injury [1]: renoprotective
- effective concentration for suppressive effect on IL-6 secretion (IL-6 secretion): ~5 µM
- target peak exposure [2]: 2,300 ng/ml
- numbers of NK cells and NKT cells (NK, NKT, T and B cells; 2.5 mg/kg per day): increased
- numbers of NK cells and NKT cells (NK, NKT, T and B cells; 5 mg/kg per day): not affected
- number of T cells including T helper cells and cytotoxic T cells and of B cells (NK, NKT, T and B cells; daily 5 mg/kg): significantly reduced
- circulating IL-6 (IL-6): suppress
- log P [3]: about 6.1
- migration of human neutrophils (human neutrophils): inhibits
- IL-6 production and secretion [4]: decreased
- production of IL-10 [4]: increased
- Th17 signature cytokine IL-17 ([4]; dose-dependently): decrease
- number of leukocytes including macrophages and neutrophils in the bronchoalveolar lavage fluid ([5]; 20 mg/kg, after LPS-induced lung inflammation): decreases
- myeloperoxidase activity [5, 8]: significantly decreased
- pro-inflammatory cytokine production including TNF-α and IL-6 [5, 8]: significantly decreased
- total leukocytes migration [5, 8]: significantly decreased
- vascular permeability [5, 8]: significantly decreased
- leukocyte migration (neutrophil, macrophages and lymphocytes) into the lungs [5, 9]: decreased
- mechanical lung function [5, 9]: improved
- myeloperoxidase activity in the lung tissue [5, 9]: decreased
- production of proinflammatory cytokines/chemokines [5, 9]: reduced
- vascular permeability [5, 9]: reduced
- release of pro-inflammatory cytokines (human mononuclear cells): suppressed
- maximum plasma concentration [6]: 14,000 ng/ml
- expression of MDSCs [7]: induces
- pro-inflammatory cytokines such as IL-2, TNF-α and IL-6 [7]: reduction

From patent US20230201284A1, “Uses and Formulations of Cannabinoids” (priority 2020, published 2023)
